Results on 3 molecules are retold here after ChEMBL document CHEMBL1145976, “Non-peptide angiotensin II receptor antagonists: chemical feature based pharmacophore identification” (J Med Chem, 2003).

Molecules are shown by their SMILES.

The assay has as its target T1, Angiotensin II receptor (AT-1) type-1 (Rattus norvegicus, UniProt P29089+P25095).
T1 sequence (P29089 whole entry): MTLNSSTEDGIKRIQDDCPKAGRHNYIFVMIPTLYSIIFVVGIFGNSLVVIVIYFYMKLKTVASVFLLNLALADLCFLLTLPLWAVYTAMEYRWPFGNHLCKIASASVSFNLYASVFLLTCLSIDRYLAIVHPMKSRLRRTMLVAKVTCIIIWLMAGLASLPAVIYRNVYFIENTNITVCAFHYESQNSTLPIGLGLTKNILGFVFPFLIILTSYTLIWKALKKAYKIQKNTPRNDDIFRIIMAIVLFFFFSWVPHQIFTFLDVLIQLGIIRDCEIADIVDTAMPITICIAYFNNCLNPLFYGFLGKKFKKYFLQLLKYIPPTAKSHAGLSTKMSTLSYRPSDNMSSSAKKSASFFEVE
T1 sequence (P25095 whole entry): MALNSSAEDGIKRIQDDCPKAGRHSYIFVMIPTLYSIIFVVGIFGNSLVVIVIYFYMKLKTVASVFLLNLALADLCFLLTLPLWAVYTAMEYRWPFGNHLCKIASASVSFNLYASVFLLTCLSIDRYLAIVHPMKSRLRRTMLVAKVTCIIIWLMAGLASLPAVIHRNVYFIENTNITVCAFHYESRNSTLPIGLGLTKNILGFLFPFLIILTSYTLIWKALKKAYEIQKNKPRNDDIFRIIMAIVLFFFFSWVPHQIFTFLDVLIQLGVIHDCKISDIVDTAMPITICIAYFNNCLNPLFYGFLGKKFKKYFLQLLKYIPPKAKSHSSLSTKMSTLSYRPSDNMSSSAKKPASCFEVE
As to the kind of experiment: Inhibitory concentration that gives 50% displacement of specific binding at labeled angiotensin II type 1 receptor in rat adrenal cortical membranes. The format is cell membranes, Membrane.
As for `CCCCc1nc(Cl)c(CC(=O)O)n1Cc1ccc(CC(=O)O)cc1`, the IC50 – broadly, the concentration needed to halve the response being measured – came to 13 µM.
As for `CCCCc1nc(Cl)c(COC)n1Cc1ccc(NC(=O)Cc2ccccc2CC(=O)O)cc1`, the IC50 was found to be 2.8 µM.
For `CCCCc1nc(Cl)c(CC(=O)OC)n1Cc1ccc(NC(=O)c2ccccc2NS(=O)(=O)C(F)(F)F)cc1` the value was 0.5 µM.
